Experimental data: PMC12652222 (International Journal of Molecular Sciences, 2025)
“And” between values parts separate entries of the source, which are not always exact repeats. Equal values may be shown once.

Legend:
[1] = Total antioxidant capacity (TAC); format: biochemical; details: mean ± SE, n = 3
Experimental: (§1) The antioxidant activity was assessed using the iron reducing power (IRP) and the total antioxidant capacity (TAC). Ascorbic acid served as a standard to calculate the inhibition percentages (%) and the median inhibitory concentration (IC50) of each tested compound against the following radicals: nitric oxide (NO), hydroxyl (OH), hydrogen peroxide (H2O2), ABTS [79], and DPPH [80].

[2] = Iron-reducing power (IRP); format: biochemical; details: mean ± SE, n = 3
Experimental: as §1

DPPH radical scavenging = format: biochemical; details: mean ± SE, n = 3; for DPPH (%): inhibition % at 20 µg/mL
Experimental: as §1

ABTS radical scavenging = format: biochemical; details: mean ± SE, n = 3; for ABTS (%): inhibition % at 20 µg/mL
Experimental: as §1

[3] = Nitric oxide (NO) radical scavenging; format: biochemical; details: mean ± SE, n = 3; for NO (%): inhibition % at 20 µg/mL
Experimental: as §1

[4] = Hydroxyl (OH) radical scavenging; format: biochemical; details: mean ± SE, n = 3; for OH (%): inhibition % at 20 µg/mL
Experimental: as §1

[5] = Hydrogen peroxide (H2O2) scavenging; format: biochemical; details: mean ± SE, n = 3; for H2O2 (%): inhibition % at 20 µg/mL
Experimental: as §1

[6] = target: acetylcholinesterase (AChE) (Homo sapiens, UniProt P22303); test: biochemical; details: mean ± SE, n = 3; for IC50: read-out: AChE IC50 (µg/mL) (converted)
Experimental: The inhibition percentage and IC50 of the acetylcholinesterase (AChE) enzyme were measured using the Ellman method.

protein denaturation = test: Protein denaturation inhibition (anti-arthritic); format: biochemical; set-up: concentration or dose not given beside the values; details: mean ± SE, n = 3
Experimental: (§2) Anti-arthritic activity was evaluated using diclofenac sodium as the reference drug. The inhibition percentage and IC50 were determined for protein denaturation and the proteinase enzyme.

proteinase enzyme = test: Proteinase inhibition (anti-arthritic); format: biochemical; set-up: Proteinase Inhibition (%): concentration or dose not given beside the values; details: mean ± SE, n = 3
Experimental: as §2

α-amylase = target: T1, α-amylase (Homo sapiens, UniProt P04746); test: α-Amylase inhibition; format: biochemical; details: read-out: α-Amylase Inhibition (%)
T1 sequence (P04746 16-511): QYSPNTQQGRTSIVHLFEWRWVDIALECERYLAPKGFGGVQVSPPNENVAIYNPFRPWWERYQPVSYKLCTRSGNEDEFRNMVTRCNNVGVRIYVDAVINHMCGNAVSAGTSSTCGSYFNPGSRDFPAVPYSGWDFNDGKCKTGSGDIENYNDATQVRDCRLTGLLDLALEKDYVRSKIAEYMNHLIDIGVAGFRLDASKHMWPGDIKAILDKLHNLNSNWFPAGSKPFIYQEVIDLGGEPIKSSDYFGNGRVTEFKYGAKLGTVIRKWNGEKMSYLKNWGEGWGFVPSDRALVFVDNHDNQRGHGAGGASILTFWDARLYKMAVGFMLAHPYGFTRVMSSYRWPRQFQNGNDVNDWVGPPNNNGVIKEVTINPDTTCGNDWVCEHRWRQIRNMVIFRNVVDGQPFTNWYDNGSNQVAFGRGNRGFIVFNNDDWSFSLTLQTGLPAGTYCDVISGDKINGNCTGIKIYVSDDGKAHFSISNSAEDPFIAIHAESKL
Experimental: (§3) The IC50 and inhibition percentages (Inhib. %) of the enzymes α-amylase and α-glucosidase were calculated.

α-glucosidase = test: α-Glucosidase inhibition; format: biochemical
Experimental: as §3

acetylcholinesterase (AChE), sequence (P22303 32-614, species assumed): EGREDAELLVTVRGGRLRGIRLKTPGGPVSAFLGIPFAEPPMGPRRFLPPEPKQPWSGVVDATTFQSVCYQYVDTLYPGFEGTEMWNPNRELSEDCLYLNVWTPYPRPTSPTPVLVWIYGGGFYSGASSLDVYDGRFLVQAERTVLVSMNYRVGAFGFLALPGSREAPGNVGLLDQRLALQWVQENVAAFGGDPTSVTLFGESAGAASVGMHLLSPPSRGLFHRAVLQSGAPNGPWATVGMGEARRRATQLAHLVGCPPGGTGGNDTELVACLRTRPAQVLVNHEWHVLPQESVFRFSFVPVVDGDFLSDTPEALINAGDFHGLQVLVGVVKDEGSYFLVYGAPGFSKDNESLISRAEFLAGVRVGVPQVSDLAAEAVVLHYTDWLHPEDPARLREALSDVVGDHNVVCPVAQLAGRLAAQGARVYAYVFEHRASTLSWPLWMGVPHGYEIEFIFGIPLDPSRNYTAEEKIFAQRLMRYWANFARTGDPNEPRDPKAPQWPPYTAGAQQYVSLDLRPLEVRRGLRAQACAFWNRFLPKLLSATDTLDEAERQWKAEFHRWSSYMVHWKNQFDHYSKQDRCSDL

SMILES | TAC (mg Gallic Acid/g) [1] | IRP [2] | DPPH (%) (DPPH radical scavenging) | ABTS (%) (ABTS radical scavenging) | ABTS radical scavenging IC50 (ABTS radical scavenging) | NO (%) [3] | NO radical scavenging IC50 [3] | OH (%) [4] | OH radical scavenging IC50 [4] | H2O2 (%) [5] | H2O2 scavenging IC50 [5] | inhibition at 20 µg/mL [6] | IC50 [6] | Protein Denaturation Inhibition (%) (protein denaturation) | Proteinase IC50 (proteinase enzyme) | Proteinase Inhibition (%) (proteinase enzyme) | inhibition at 20 µg/mL (α-amylase) | α-Glucosidase IC50 (α-glucosidase) | DPPH radical scavenging IC50 (DPPH radical scavenging) | inhibition of α-glucosidase (α-glucosidase; at 20 µg/mL)
O=c1/c(=C\[C@H](O)[C@@H](O)[C@H](O)[C@H](O)CO)sc2nc3sc4c(c3c(=O)n12)CCC4 [7a, (E)-2-((2S,3R,4R,5R)-2,3,4,5,6-pentahydroxyhexylidene)-7,8-dihydro-5H,6H-cyclopenta-[4,5]thieno [2,3-d]thiazolo [3,2-a]pyrimidine-3,5(2H)-dione] | 17.44 mg Gallic Acid/g and 17.44 ± 0.22 mg Gallic Acid/g | 10.29 µg/mL and 10.29 ± 0.22 µg/mL | 14.04 ± 0.22% | 17.19 ± 0.22% | 18.83 ± 0.22 µg/mL | 8.29 ± 0.22% | 48.89 ± 0.78 µg/mL | 7.21 ± 0.19% | 65.77 ± 2.12 µg/mL | 8.07 ± 0.21% | 73.10 ± 1.67 µg/mL | 5.75 ± 0.18% | 117 µM | 11.62 ± 0.18% | 62.33 ± 1.77 µg/mL | 7.45 ± 0.18% | 13.4 ± 0.21% | 31.92 ± 0.89 µg/mL |  | 
O=c1/c(=C\[C@@H](O)[C@@H](O)[C@H](O)[C@H](O)CO)sc2nc3sc4c(c3c(=O)n12)CCC4 [7b, (E)-2-((2R,3R,4R,5R)-2,3,4,5,6-pentahydroxyhexylidene)-7,8-dihydro-5H,6H-cyclopenta [4,5]thieno [2,3-d]thiazolo [3,2-a]pyrimidine-3,5(2H)-dione] | 21.59 ± 0.25 mg Gallic Acid/g | 14.44 ± 0.25 µg/mL | 18.19 ± 0.25% | 21.34 ± 0.25% | 15.17 ± 0.15 µg/mL | 12.44 ± 0.25% | 32.58 ± 0.96 µg/mL | 10.82 ± 0.21% | 43.75 ± 0.52 µg/mL | 12.12 ± 0.24% | 48.67 ± 0.85 µg/mL | 5.14 ± 0.16% | 131 µM | 15.06 ± 0.20% | 42.61 ± 0.37 µg/mL | 10.89 ± 0.20% | 17.3 ± 0.24% | 19.96 ± 0.34 µg/mL | 21.36 ± 0.44 µg/mL | 
C[C@H]1O[C@H](O[C@H]2[C@H](O)[C@@H](O)[C@@H](O[C@H]3[C@H](O)[C@@H](O)C(O)O[C@@H]3CO)O[C@@H]2CO)[C@H](O)[C@@H](O)[C@@H]1N[C@H]1C=C(CO)[C@@H](O)[C@H](O)[C@H]1O (stereo partly shown) [Acarbose, reference compound] |  |  |  |  |  |  |  |  |  |  |  |  |  |  |  |  | 69.85 ± 0.16% |  |  | 63.10 ± 0.16%
O=C(O)Cc1ccccc1Nc1c(Cl)cccc1Cl [Diclofenac sodium, reference compound] |  |  |  |  |  |  |  |  |  |  |  |  |  | 60.74 ± 0.14% | 8.20 ± 0.06 µg/mL | 56.57 ± 0.14% |  |  |  | 
O=C1O[C@H]([C@@H](O)CO)C(O)=C1O [ascorbic acid, reference compound] | 78.44 mg Gallic Acid/g | 67.49 µg/mL |  |  | 4.35 µg/mL |  | 6.18 µg/mL |  | 8.31 µg/mL |  | 9.24 µg/mL |  |  |  |  |  |  |  | 5.45 µg/mL | 
